The subject of the assay is rabbit skeletal myofibrils (approximately 90% fast fibers). The assay is described as follows: Activation of fast skeletal myofibrils (PUMA coupled-enzyme ATPase assay at pCa25). It counts as biochemical. The conditions noted are these: concentration at which the compound increased the enzymatic activity by 40%; calcium at pCa25; PM12 buffer pH 6.8. Put shortly: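 In pH 6.8 PM12 buffer (12 mM Pipes, 2 mM MgCl2, 1 mM DTT), ADP from myosin regenerated via pyruvate kinase/lactate dehydrogenase, with absorbance change at 340 nm from NADH oxidation as read-out. Calcium set at pCa25; Triton-washed rabbit skeletal myofibrils (about 90% fast fibres) used.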
As for `CC(C)(Nc1nccc(-c2nccs2)n1)c1cccc(OC(F)F)n1` [{1-[6-(difluoromethoxyl)(2-pyridyl)]-isopropyl)(4-(1,3-thiazol-2-yl)]pyrimidin-2-yl)amine], the “Mean AC1.4” value is reported as “C (C=10-20 uM)”.

Consider `N#CCc1cnc(-c2cnc(NCC3(c4ncccc4F)CCC3)nc2)s1` [2-{2-[2-({[(3-fluoro-2-pyridyl)cyclobutyl]methyl}amino)pyrimidin-5-yl]-1,3-thiazol-5-yl}ethanenitrile], for which the “Mean AC1.4” value was “B (B=1-10 uM)”. With `NC(=O)c1ccc(F)c(-c2cnc(NCC3(c4ncccc4F)CCC3)nc2)c1` [4-fluoro-3-[2-({[(3-fluoro(2-pyridyl))cyclobutyl]methyl}amino)pyrimidin-5-yl]benzamide], the “Mean AC1.4” value is recorded as “A (A=<1 uM)”. For `CC(C)(Nc1ncc(-c2cnc3cc[nH]c3c2)cn1)c1ncccc1Cl` [[1-(3-chloro(2-pyridyl))-isopropyl](5-pyrrolo[3,2-b]pyridin-6-ylpyrimidin-2-yl)amine], the “Mean AC1.4” value is reported as “A (A=<1 uM)”.

As to `CC(C)(Nc1ncc(-c2cnc(N)nc2)cn1)c1ncccc1F` [[5-(2-aminopyrimidin-5-yl)pyrimidin-2-yl][1-(3-fluoro(2-pyridyl))-isopropyl]amine], the “Mean AC1.4” value is listed as “D (D=>20 uM)”.

Take `CC(C)(Nc1ncc(-c2nc(CNC(=O)CN)cs2)cn1)c1ncccc1F` [2-amino-N-{[2-(2-{[1-(3-fluoro(2-pyridyl))-isopropyl]amino}pyrimidin-5-yl)(1,3-thiazol-4-yl)]methyl}acetamide]: the “Mean AC1.4” value is given as “D (D=>20 uM)”. As to `O=C1NCc2cccc(-c3cnc(NC[C@]4(c5ncccc5F)C[C@H](F)C4)nc3)c21` [7-[2-({[3-fluoro-1-(3-fluoro(2-pyridyl))cyclobutyl]methyl}amino)pyrimidin-5-yl]isoindolin-1-one], the “Mean AC1.4” value is “B (B=1-10 uM)”. As to `CC(C)(Nc1ncc(-c2cc(C(N)=O)on2)cn1)c1ncccc1Cl` [3-(2-{[1-(3-chloro(2-pyridyl))-isopropyl]amino}pyrimidin-5-yl)isoxazole-5-carboxamide], the “Mean AC1.4” value was “C (C=10-20 uM)”. Take `CC(=O)N1CC(NC(=O)c2ccc(F)c(-c3cnc(NC[C@]4(c5ncccc5F)C[C@H](F)C4)nc3)c2)C1` [N-(1-acetylazetidin-3-yl) {4-fluoro-3-[2-({[3-fluoro-1-(3-fluoro(2-pyridyl))cyclobutyl]methyl}aminopyrimidin-5-yl]phenyl}carboxamide]: the “Mean AC1.4” value was “B (B=1-10 uM)”. As to `CSc1cccnc1C(C)(C)Nc1ncc(-c2cccc(C(N)=O)c2)cn1` [3-(2-{[1-methyl-1-(3-methylthio(2-pyridyl))ethyl]amino}pyrimidin-5-yl)benzamide], the “Mean AC1.4” value was “B (B=1-10 uM)”.

In the case of `N#Cc1n[nH]c2ccc(-c3cnc(NC4(c5ncccc5F)CCC4)nc3)cc12` [5-(2-{[(3-fluoro-2-pyridyl)cyclobutyl]amino}pyrimidin-5-yl)-1H-indazole-3-carbonitrile], the “Mean AC1.4” value is listed as “B (B=1-10 uM)”. To `NC(=O)c1cc(-c2cnc(NCC3(c4ncccc4F)CCC3)nc2)ccn1` [4-[2-({[(3-fluoro-2-pyridyl)cyclobutyl]methyl}amino)pyrimidin-5-yl]pyridine-2-carboxamide] belongs “B (B=1-10 uM)”. Take `Nc1ncc(-c2cnc(NC[C@]3(c4ncccc4F)C[C@H](F)C3)nc2)[nH]c1=O` [3-amino-6-[2-({[3-fluoro-1-(3-fluoro(2-pyridyl))cyclobutyl]methyl}amino)pyrimidin-5-yl] hydropyrazin-2-one]: the “Mean AC1.4” value is on record as “B (B=1-10 uM)”.

Turning to `O=C(Nc1cnc(NCC2(c3ncccc3F)CCC2)nc1)Nc1nccs1` [{[2-({[(3-fluoro(2-pyridyl))cyclobutyl]methyl}amino)pyrimidin-5-yl]amino}-N-(1,3-thiazol-2-yl)carboxamide], the “Mean AC1.4” value was “B (B=1-10 uM)”. For `CNC(=O)c1cnc(NCC2(c3ncccc3F)CCC2)nc1` [[2-({[(3-fluoro(2-pyridyl))cyclobutyl]methyl}amino)pyrimidin-5-yl]-N-methylcarboxamide], the “Mean AC1.4” value was “D (D=>20 uM)”.

The record behind these values is patent US11369565B2, “Amino-pyrimidine skeletal muscle modulators” (Cytokinetics, Inc., priority 2010, dated 2022).
